In assay [1] the test system is E. coli. The assay is classed as cell-based. As to the method: Minimum inhibitory concentration (MIC) was determined by broth microdilution according to CLSI guidelines. Blood agar plates were inoculated with glycerol stocks of Escherichia coli ATCC 25922, E. coli ATCC 25922 MCR-1, E. coli MCR-1 (clinical isolate from Utrecht Medical Center, NL), E. coli EQAS MCR-2 (clinical isolate from Wageningen University and Research, NL), Kiebsielia pneumoniae ATCC 11228, K. pneumoniae ATCC 13883, K. pneumonia 2048 (clinical isolate from Vrije Universiteit Amsterdam Medical Center, NL), K. pneumonia JS-123 (clinical isolate from Utrecht Medical Center, NL), Acinetobacter baumannii ATCC 17961, A. baumannil ATCC 17978, A. baumannii 2018-006 (clinical isolate from Rijksinstituut voor Volksgezondheid en Milieu, NL), A. baumannii MDR (clinical isolate from Vrije Universiteit Amsterdam Medical Center, NL), Pseudomonas aeruginosa ATCC 27853, P. aeruginosa PAO1, P. aeruginosa NRZ-03961 (Reference strain from Das Nationale Referenzzentrum für gramnegative Krankenhauserreger, DE), P. aeruginosa M-120 (clinical isolate from Leiden University Medical Center, NL) and Staphylococcus aureus USA300 (clinical isolate from Texas Children's Hospitalm, USA). E. coli 25922 MCR1 was grown on LB agar supplemented with kanamycin. The inoculated agar plates were then incubated for 16 hours at 37° C. Individually grown colonies were subsequently used to inoculate 3 mL aliquots of TSB that were then incubated at 37° C. with shaking at 220 rpm. In parallel, the compounds to be assessed were serially diluted with Mueller-Hinton broth (MHB) in polypropylene 96-well plates (50 μL in each well). Once the OD600 of the bacterial suspensions reached 0.5, the bacteria were diluted with MHB (final concentration 2×10^5 CFU mL^−1) and added to the microplates containing the test compounds (50 μL to each well, final volume: 100 μL). The well-plates were sealed with an adhesive membrane and after 16 hours of incubation at 37° C. with shaking at 220 rpm the wells were visually inspected for bacterial growth. MIC values were defined as the lowest concentration of the compound that prevented visible growth of bacteria.
MIC values were determined for the lipid analogues of brevicidine.
MIC values were determined for the position 9 analogues of linear brevicidine.

Assay [2] concerns Escherichia coli ATCC 25922. It is filed as cell-based. To be noted: for Minimum inhibitory concentration (MIC): ATCC 25922. The procedure, abridged: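 Broth microdilution in MHB per CLSI; inoculum 2×10^5 CFU mL^−1 from log-phase TSB cultures at OD600 0.5. Plates incubated 16 hours at 37° C with shaking at 220 rpm. MIC is the lowest concentration preventing visible growth.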

Converted amounts (≈) assume the structure as drawn. Positions of bridges follow the written chain, without caps; N, C: chain ends. Non-standard residues stand in square brackets, D forms with d. Residues, ends and D or L forms follow the SMILES beside them. ξ: configuration not given here. *: point of attachment. Octanoyl(7-Me) = CC(C)CCCCCC(=O)*; Hexanoyl(4ξ-Me) = CCC(C)CCC(=O)*; dOrn = NCCC[C@@H](N)C(=O)O; Octanoyl = CCCCCCCC(=O)*; Orn = NCCC[C@H](N)C(=O)O; Dap = NC[C@H](N)C(=O)O; Alloc = C=CCOC(=O)*; OAll = C=CCO*

As for `CCCCCCCC(=O)N[C@H](CC(N)=O)C(=O)N[C@H](Cc1ccc(O)cc1)C(=O)N[C@H](Cc1c[nH]c2ccccc12)C(=O)N[C@H](CCCN)C(=O)N[C@@H](CCCN)C(=O)NCC(=O)N[C@H](CCCN)C(=O)N[C@@H](Cc1c[nH]c2ccccc12)C(=O)N[C@@H]1C(=O)N[C@@H]([C@@H](C)CC)C(=O)NCC(=O)N[C@@H](CO)C(=O)O[C@@H]1C` [Brev-C8] (Octanoyl-[dN][dY][dW][dOrn][Orn]G[dOrn]WTIGS; ester 9-C), the “E. coli MIC” value in assay [1] came out at 25 µg/mL.
`CC[C@H](C)[C@@H]1NC(=O)[C@@H](NC(=O)[C@H](Cc2c[nH]c3ccccc23)NC(=O)[C@@H](CCCN)NC(=O)CNC(=O)[C@H](CCCN)NC(=O)[C@@H](CCCN)NC(=O)[C@@H](Cc2c[nH]c3ccccc23)NC(=O)[C@@H](Cc2ccc(O)cc2)NC(=O)[C@H](N)CC(N)=O)[C@@H](C)OC(=O)[C@H](CO)NC(=O)CNC1=O` [Brev-NH2] (H-[dN][dY][dW][dOrn][Orn]G[dOrn]WTIGS; ester 9-C): the “E. coli MIC” value in assay [1] was 50 µg/mL.
Same read-out and setting: under `CCC(C)CCC(=O)N[C@H](CC(N)=O)C(=O)N[C@H](Cc1ccc(O)cc1)C(=O)N[C@H](Cc1c[nH]c2ccccc12)C(=O)N[C@H](CCCN)C(=O)N[C@@H](CCCN)C(=O)NCC(=O)N[C@H](CCCN)C(=O)N[C@@H](Cc1c[nH]c2ccccc12)C(=O)N[C@@H](CCC(N)=O)C(=O)N[C@H](C(=O)NCC(N)=O)[C@@H](C)CC` (stereo partly drawn) [Und(9-Gln)-NH2] ({Hexanoyl(4ξ-Me)}-[dN][dY][dW][dOrn][Orn]G[dOrn]WQIG-NH2) stands 0.78 µg/mL.
`CC[C@H](C)[C@H](NC(=O)[C@@H](NC(=O)[C@H](Cc1c[nH]c2ccccc12)NC(=O)[C@@H](CCCN)NC(=O)CNC(=O)[C@H](CCCN)NC(=O)[C@@H](C)NC(=O)[C@@H](Cc1c[nH]c2ccccc12)NC(=O)[C@@H](Cc1ccc(O)cc1)NC(=O)[C@@H](CO)NC(=O)CCCCCC(C)C)[C@@H](C)O)C(=O)N[C@@H](CC(N)=O)C(=O)NCC(=O)NCC(N)=O` [Ala4 (D-Orn→D-Ala), FA-sywaOGoWTINGG-CONH2] ({Octanoyl(7-Me)}-[dS][dY][dW][dA][Orn]G[dOrn]WTINGG-NH2): the “Minimum inhibitory concentration (MIC)” value in assay [2] turned out to be 32 µg/mL (≈ 20.3 µM).
Still for that read-out and setting: under `CCC(C)CCC(=O)N[C@H](CO)C(=O)N[C@H](Cc1ccc(O)cc1)C(=O)N[C@H](Cc1c[nH]c2ccccc12)C(=O)N[C@H](CCCN)C(=O)N[C@@H](CCCN)C(=O)NCC(=O)N[C@H](CCCN)C(=O)N[C@@H](Cc1c[nH]c2ccccc12)C(=O)N[C@@H]1C(=O)N[C@@H]([C@@H](C)CC)C(=O)NCC(=O)N[C@@H](CO)C(=O)N[C@@H](C)C(=O)O[C@@H]1C` (stereo partly drawn) [Compound R5] ({Hexanoyl(4ξ-Me)}-[dS][dY][dW][dOrn][Orn]G[dOrn]WTIGSA; ester 9-C; N-terminus assumed) stands 2 µg/mL (≈ 1.28 µM); under `CC[C@H](C)[C@H](NC(=O)[C@@H](NC(=O)[C@H](Cc1c[nH]c2ccccc12)NC(=O)[C@@H](CCCN)NC(=O)CNC(=O)[C@H](CCCN)NC(=O)[C@@H](CCCN)NC(=O)[C@@H](C)NC(=O)[C@@H](Cc1ccc(O)cc1)NC(=O)[C@@H](CO)NC(=O)CCCCCC(C)C)[C@@H](C)O)C(=O)N[C@@H](CC(N)=O)C(=O)NCC(=O)NCC(N)=O` [Ala3 (D-Trp→D-Ala), FA-syaoOGoWTINGG-CONH2] ({Octanoyl(7-Me)}-[dS][dY][dA][dOrn][Orn]G[dOrn]WTINGG-NH2), 16 µg/mL (≈ 10.6 µM).
With polymyxin B [reference compound], the MIC values against E. coli ATCC 25922 in assay [2] (in vitro activity quoted in the in vivo section) was determined as 0.5 µg/mL.
Turning to `CC[C@H](C)[C@H](NC(=O)[C@@H](NC(=O)[C@H](Cc1c[nH]c2ccccc12)NC(=O)[C@@H](CCCN)NC(=O)CNC(=O)[C@H](CCCN)NC(=O)[C@@H](CCCN)NC(=O)[C@@H](Cc1c[nH]c2ccccc12)NC(=O)[C@@H](Cc1ccc(O)cc1)NC(=O)[C@@H](CO)NC(=O)CCCCCC(C)C)[C@@H](C)O)C(=O)N[C@@H](CC(N)=O)C(=O)NCC(=O)NCC(N)=O` [Thr (linear laterocidine)] ({Octanoyl(7-Me)}-[dS][dY][dW][dOrn][Orn]G[dOrn]WTINGG-NH2; N-terminus and C-terminus assumed), in assay [2], the “Minimum inhibitory concentration (MIC)” value is 2 µg/mL (≈ 1.23 µM).
As to `CC[C@H](C)[C@H](NC(=O)[C@H](CCSC)NC(=O)[C@H](Cc1c[nH]c2ccccc12)NC(=O)[C@@H](CCCN)NC(=O)CNC(=O)[C@H](CCCN)NC(=O)[C@@H](CCCN)NC(=O)[C@@H](Cc1c[nH]c2ccccc12)NC(=O)[C@@H](Cc1ccc(O)cc1)NC(=O)[C@@H](CO)NC(=O)CCCCCC(C)C)C(=O)N[C@@H](CC(N)=O)C(=O)NCC(=O)NCC(N)=O` [Met9-CONH2] ({Octanoyl(7-Me)}-[dS][dY][dW][dOrn][Orn]G[dOrn]WMINGG-NH2), the “Minimum inhibitory concentration (MIC)” value in assay [2] came out at 2 µg/mL (≈ 1.21 µM).
In the case of `C=CCOC(=O)CC[C@H](NC(=O)[C@H](Cc1c[nH]c2ccccc12)NC(=O)[C@@H](CCCN)NC(=O)CNC(=O)[C@H](CCCN)NC(=O)[C@@H](CCCN)NC(=O)[C@@H](Cc1c[nH]c2ccccc12)NC(=O)[C@@H](Cc1ccc(O)cc1)NC(=O)[C@@H](CO)NC(=O)CCCCCC(C)C)C(=O)N[C@H](C(=O)N[C@@H](CC(N)=O)C(=O)NCC(=O)NCC(N)=O)[C@@H](C)CC` [Glu(OAll)9-CONH2] ({Octanoyl(7-Me)}-[dS][dY][dW][dOrn][Orn]G[dOrn]WE(OAll)INGG-NH2), the “Minimum inhibitory concentration (MIC)” value in assay [2] stood at 8 µg/mL (≈ 4.73 µM).
Same read-out and setting: the value for `CC(C)CCCCCC(=O)N[C@H](CO)C(=O)N[C@H](Cc1ccc(O)cc1)C(=O)N[C@H](Cc1c[nH]c2ccccc12)C(=O)N[C@H](CCCN)C(=O)N[C@@H](CCCN)C(=O)NCC(=O)N[C@H](CCCN)C(=O)N[C@@H](Cc1c[nH]c2ccccc12)C(=O)N[C@H](C(N)=O)[C@@H](C)O` [ΔI10-G13, FA-sywoOGoWT-CONH2] ({Octanoyl(7-Me)}-[dS][dY][dW][dOrn][Orn]G[dOrn]WT-NH2) was 16 µg/mL (≈ 12.5 µM); that for `CC[C@H](C)[C@@H]1NC(=O)[C@@H](NC(=O)[C@H](Cc2c[nH]c3ccccc23)NC(=O)[C@@H](CCCN)NC(=O)CNC(=O)[C@H](CCCN)NC(=O)[C@@H](CCCN)NC(=O)[C@@H](Cc2c[nH]c3ccccc23)NC(=O)[C@@H](Cc2ccc(O)cc2)NC(=O)[C@@H](CO)NC(=O)CCCCCC(C)C)[C@@H](C)OC(=O)[C@@H](C)NC(=O)[C@@H](CO)NC(=O)CNC1=O` [Compound R12] ({Octanoyl(7-Me)}-[dS][dY][dW][dOrn][Orn]G[dOrn]WTIG[dS][dA]; ester 9-C; N-terminus assumed) was 1 to 2 µg/mL.
Still for that read-out and setting: under `CC[C@H](C)[C@H](NC(=O)[C@H](C)NC(=O)[C@H](Cc1c[nH]c2ccccc12)NC(=O)[C@@H](CCCN)NC(=O)CNC(=O)[C@H](CCCN)NC(=O)[C@@H](CCCN)NC(=O)[C@@H](Cc1c[nH]c2ccccc12)NC(=O)[C@@H](Cc1ccc(O)cc1)NC(=O)[C@@H](CO)NC(=O)CCCCCC(C)C)C(=O)N[C@@H](CC(N)=O)C(=O)NCC(=O)NCC(N)=O` [Ala9 (Thr→Ala), FA-sywoOGoWAINGG-CONH2] ({Octanoyl(7-Me)}-[dS][dY][dW][dOrn][Orn]G[dOrn]WAINGG-NH2) stands 2 µg/mL (≈ 1.26 µM); under `C=CCOC(=O)NC[C@H](NC(=O)[C@H](Cc1c[nH]c2ccccc12)NC(=O)[C@@H](CCCN)NC(=O)CNC(=O)[C@H](CCCN)NC(=O)[C@@H](CCCN)NC(=O)[C@@H](Cc1c[nH]c2ccccc12)NC(=O)[C@@H](Cc1ccc(O)cc1)NC(=O)[C@@H](CO)NC(=O)CCCCCC(C)C)C(=O)N[C@H](C(=O)N[C@@H](CC(N)=O)C(=O)NCC(=O)NCC(=O)O)[C@@H](C)CC` [Dap(Alloc)9-COOH] ({Octanoyl(7-Me)}-[dS][dY][dW][dOrn][Orn]G[dOrn]W[Dap](Alloc)INGG-OH), 2 µg/mL (≈ 1.18 µM).
With `CC[C@H](C)[C@H](NC(=O)[C@@H](NC(=O)[C@H](Cc1c[nH]c2ccccc12)NC(=O)[C@@H](CCCN)NC(=O)CNC(=O)[C@H](CCCN)NC(=O)[C@@H](CCCN)NC(=O)[C@@H](Cc1c[nH]c2ccccc12)NC(=O)[C@@H](Cc1ccc(O)cc1)NC(=O)[C@@H](CO)NC(=O)CCCCCC(C)C)[C@@H](C)O)C(=O)N[C@@H](CC(N)=O)C(=O)NCC(=O)NCC(=O)O` [Linear Laterocidine (Thr9-COOH)] ({Octanoyl(7-Me)}-[dS][dY][dW][dOrn][Orn]G[dOrn]WTINGG-OH), in assay [2], the “Minimum inhibitory concentration (MIC)” value was in the range of 4 to 8 µg/mL.
